This note sets out measurements from patent publication US20240216369A1, “THE USE OF A SPLICING MODULATOR FOR A TREATMENT SLOWING PROGRESSION OF HUNTINGTON'S DISEASE” (Novartis AG, priority 2019, published 2024).

Structures are written as SMILES. Values joined by “and” are separate entries in the source; they are usually repeats but may differ in a detail not shown here. Equal values may be shown once.

Series [1] in a line: GastroPlus ACAT/PBPK physico-chemical and formulation input parameters. The settings on record: for controlled-release dissolution profile, release: fitted to plasma profile. An excerpt: The pharmacokinetic (PK) model in adult subjects was developed using an Advanced Compartmental And Transit (ACAT)/Physiologically Based Pharmacokinetic (PBPK) model in GastroPlus™ software, Version 9.6 (SimulationPlus, Lancaster, CA, USA).
• Principle set-up of a pediatric ACAT/PBPK model in GastroPlus™ software including physico-chemical parameters, physiological parameters, and formulation factors. The ACAT model was linked to a full PBPK model in which tissue-to-plasma concentration ratios were estimated via in silico method provided by GastroPlus™ software. • Estimation of the clearance (CL) using plasma concentrations of branaplam from an open-label multi-part first-in-human proof of concept study of oral branaplam, Part 1 only. The aim of Part 1 of this study was to determine the safety and tolerability of ascending weekly doses and to estimate the maximum tolerated dose (MTD) of oral/enteral branaplam (formulation described in Example 3) in infants with Type 1 SMA. All patients had exactly 2 copies of the SMN2 gene. Patients were dosed once weekly with branaplam. The branaplam doses were escalated in subsequent cohorts until MTD was determined or when PK results confirmed that the MTD could not be reached due to a potential pharmacokinetic exposure plateau at higher doses. The starting dose referring to the free base was 6 mg/m^2 (equal to 0.3125 mg/kg). Subsequent doses were 12 mg/m^2, 24 mg/m^2, 48 mg/m^2 and 60 mg/m^2 (0.625 mg/kg, 1.25 mg/kg, 2.5 mg/kg and 3.125 mg/kg, respectively). 14 patients were enrolled in Part 1; 13 patients were exposed to branaplam. The duration of exposure ranged from 4-33 months, 7 patients remain in the study. Six of the 7 patients are receiving 60 mg/m^2, 1 patient is receiving 48 mg/m^2.
The in vivo solubility parameter for branaplam was newly assessed to consider the impact of the solubilizer cyclodextrin (CD), which is present in the currently used formulation (Example 3), on the solubility of branaplam. […]

The next series deals with Huntingtin protein. Briefly: In vitro evaluation in SH-SY5Y cells: Huntingtin protein by Western blot. The settings on record: 48 hours. Type of series: cell-based, human. As to the method:
Cultured human neuroblastoma (SH-SY5Y cell line) cells were treated at doses ranging from 5 nM-125 nM for 24 hours (for transcript evaluation) or 48 hours (for protein evaluation). RNA was quantified by Nanodrop 2000 (Thermo Scientific). cDNAs were synthesized from 140-400 ng RNA using Maxima First strand cDNA synthesis kit using a mix of oligo dT and random hexamers (Thermo Scientific) in 20 uL reaction at 25° C. for 10 min, 50° C. for 15 min then 85° C. for 5 min. Quantitative PCR was performed using Taqman Fast Advanced master mix (Thermo Scientific) in 20 uL with 4 uL of cDNA reaction and primers specific for each genes. The PCR steps were as follows: 95° C. for 20 sec then 40 cycles of 95° C. for 1 sec, 55° C. for 20 sec. […] Relative quantification of gene expression was performed using 2-AACT method. Fold changes in the mRNA expression level was calculated following normalization to […] glucuronidase beta (Gusb) as an endogenous reference (FIGS. 2a and 2b).
For protein analysis, cells were lysed in RIPA buffer with protease and phosphatase inhibitor (Thermo Scientific). […] Total protein concentration was quantified using the BCA protein Assay (Thermo Scientific). […] Protein bands were quantified by Image J.
Background: A western blot detects proteins with antibodies after separation by electrophoresis.

In the case of `CC1(C)CC(Oc2ccc(-c3ccc(-c4cn[nH]c4)cc3O)nn2)CC(C)(C)N1` [Compound 18, 5-(1H-pyrazol-4-yl)-2-(6-((2,2,6,6-tetramethylpiperidin-4-yl)oxy)pyridazin-3-yl)phenol], the “controlled-release dissolution profile, release” value is 2% in series [1] (at 0.25 h) and 5% in series [1] (at 1 h). Further, the Solubility in series [1] (pH 6.8, optimized with GastroPlus on observed concentration-time data (cyclodextrin formulation), listed as branaplam) is 0.088 at pH 6.8 (Optimized value using GastroPlus ™ software mg/mL and 0.088 at pH 6.8 (Optimized value using GastroPlus ™ based mg/mL. Besides, the “reduction of normal Huntingtin protein” value in the series on Huntingtin protein (5 nM-125 nM, Western blot) was 50-70%. In addition, the 50% effective concentration (EC50) (in general, the concentration at which the effect is half-maximal) in the series on Huntingtin protein (read-out: EC50 for HTT protein lowering) is 10 to 25 nM.
